The source of these data is ChEMBL document CHEMBL1201862, “PubChem BioAssay data set” (2004).

Test systems include Hs-578T; CAKI-1; NCI/ADR-RES; SNB-75; COLO 205; 786-0; HOP-92; RXF 393; HT-29; MDA-MB-435; U-251; NCI-H23; Malme-3M; DU-145; OVCAR-4; HCT-116; SK-MEL-2; UACC-257.
Common to all, as to experiment: NCI-60 cell line screen, 48 h

Structures are written as SMILES.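 Assay format: 96-well plates, 48-hour exposure. Abbreviation: GI50, concentration required for 50% inhibition of growth.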 Active and inactive are the calls of the source. Cut-off read from the data, not from the text of the source: active = GI50 up to about 1.1 µM and inactive = higher.

With `Oc1c(C2=NNC(c3cccs3)C2)ccc2ccccc12` (stereo not drawn), the GI50 is 17.1 µM (inactive) in the assay with Hs-578T; 40.6 µM (inactive) in the assay with CAKI-1; 21.9 µM (inactive) with NCI/ADR-RES; 21.3 µM (inactive) with SNB-75; 19.5 µM (inactive) with COLO 205; 32.9 µM (inactive) in the assay with 786-0. In addition, the GI50 in the assay with HOP-92 was 18.2 µM (inactive); with RXF 393 it was 42.6 µM (inactive); with HT-29, 17.9 µM (inactive); in the assay on MDA-MB-435, 18.3 µM (inactive); in the assay with U-251, 25 µM (inactive); with NCI-H23, 28.5 µM (inactive). Also, the GI50 was 18.8 µM (inactive) in the assay on Malme-3M; 20.9 µM (inactive) in the assay with DU-145; 29.4 µM (inactive) in the assay with OVCAR-4; 16.4 µM (inactive) in the assay on HCT-116; 40.5 µM (inactive) with SK-MEL-2; 30.1 µM (inactive) in the assay on UACC-257.
Consider `CC(C)=CC1CC(C)C2(CCC3(C)CC4C(C(=O)CC4(C)O)/C(C=O)=C\CC32)O1` (stereo not drawn), for which the GI50 was 0.13 µM (active) in the assay with Hs-578T; 0.0604 µM (active) with CAKI-1; 0.11 µM (active) with NCI/ADR-RES; 0.142 µM (active) in the assay with SNB-75; 0.0596 µM (active) with COLO 205; 0.021 µM (active) with 786-0. Further, the GI50 in the assay with HOP-92 is 0.0703 µM (active); in the assay on RXF 393, 0.0373 µM (active); in the assay with HT-29, 0.0312 µM (active); with MDA-MB-435, 0.0617 µM (active); with U-251, 0.0735 µM (active); in the assay with NCI-H23, 0.0757 µM (active). In addition, the GI50 in the assay on Malme-3M is 0.131 µM (active); with DU-145 it was 0.129 µM (active); in the assay on OVCAR-4, 0.0356 µM (active); in the assay on HCT-116 it was 0.0407 µM (active); in the assay on SK-MEL-2, 0.144 µM (active); in the assay with UACC-257, 0.12 µM (active).
Turning to `COS(C)(=O)=O` [METHANESULFONIC ACID METHYL ESTER], the GI50 with Hs-578T, with CAKI-1, in the assay on NCI/ADR-RES, in the assay on SNB-75, with COLO 205 and in the assay with 786-0 was > 2 µM (inactive) each time. Moreover, the GI50 in the assay with HOP-92, with RXF 393, with HT-29, with MDA-MB-435, in the assay on U-251 and in the assay with NCI-H23 was > 2 µM (inactive) in each case. The GI50 with Malme-3M, in the assay on DU-145, in the assay with OVCAR-4, in the assay on HCT-116, in the assay on SK-MEL-2 and with UACC-257 was > 2 µM (inactive) each time.
As for `COc1ccc(C(C#N)NC23CC4CC(CC(C4)C2)C3)cc1` (stereo not drawn), the GI50 with Hs-578T, with CAKI-1, in the assay on NCI/ADR-RES, with SNB-75, with COLO 205 and in the assay on 786-0 was > 100 µM (inactive) each time. The GI50 in the assay on HOP-92 was 67.9 µM (inactive); with RXF 393, > 100 µM (inactive); in the assay on HT-29 it was > 100 µM (inactive); in the assay on MDA-MB-435, > 100 µM (inactive); in the assay with U-251 it was > 100 µM (inactive); in the assay on NCI-H23 it was > 100 µM (inactive). For the same compound, the GI50 with Malme-3M, in the assay on DU-145, in the assay with OVCAR-4, in the assay with HCT-116, in the assay with SK-MEL-2 and in the assay with UACC-257 was > 100 µM (inactive) in each case.
`O=c1c(-c2c(-c3ccccc3)oc3ccc(Cl)cc3c2=O)c(-c2ccccc2)oc2ccc(Cl)cc12`: the GI50 with Hs-578T was > 49.8 µM (inactive); in the assay with CAKI-1 it was > 100 µM (inactive); with NCI/ADR-RES, > 100 µM (inactive); with SNB-75, > 44.1 µM (inactive); in the assay with COLO 205, > 100 µM (inactive); in the assay on 786-0, > 100 µM (inactive). In addition, the GI50 was > 59.7 µM (inactive) in the assay on HOP-92; > 100 µM (inactive) in the assay on RXF 393; > 100 µM (inactive) in the assay on HT-29; > 100 µM (inactive) in the assay with MDA-MB-435; > 100 µM (inactive) in the assay with U-251; > 100 µM (inactive) in the assay on NCI-H23. Moreover, the GI50 in the assay on Malme-3M is > 100 µM (inactive); with DU-145, > 100 µM (inactive); in the assay on OVCAR-4 it was > 100 µM (inactive); in the assay on HCT-116, > 78.3 µM (inactive); in the assay with SK-MEL-2, > 100 µM (inactive); in the assay with UACC-257, > 100 µM (inactive).
As for `C[C@@H]1OCC(O)C([C@H]2OC(c3ccccc3)=N[C@H]2CO)O1` (stereo partly drawn), the GI50 in the assay with Hs-578T was > 100 µM (inactive); with CAKI-1, > 100 µM (inactive); in the assay on NCI/ADR-RES, > 100 µM (inactive); in the assay with SNB-75, 72.1 µM (inactive); with COLO 205 it was > 100 µM (inactive); in the assay with 786-0, > 100 µM (inactive). The GI50 in the assay on HOP-92, in the assay with RXF 393, in the assay with HT-29, in the assay on MDA-MB-435, in the assay on U-251 and in the assay on NCI-H23 was > 100 µM (inactive) throughout. Also, the GI50 in the assay with Malme-3M, with DU-145, in the assay with OVCAR-4, in the assay on HCT-116, with SK-MEL-2 and in the assay with UACC-257 was > 100 µM (inactive) throughout.
With `C=C1C[C@@H](O)[C@@H](Br)C(C)(C)[C@@]12C=CC(=O)CC2`, the GI50 with Hs-578T is > 100 µM (inactive); in the assay on CAKI-1, > 100 µM (inactive); with NCI/ADR-RES it was > 100 µM (inactive); in the assay with SNB-75, > 63.2 µM (inactive); in the assay on COLO 205, 1.77 µM (inactive); with 786-0 it was > 100 µM (inactive). For the same compound, the GI50 in the assay with HOP-92, in the assay with RXF 393, in the assay with HT-29, with MDA-MB-435, in the assay on U-251 and in the assay with NCI-H23 was > 100 µM (inactive) in each case. Further, the GI50 with Malme-3M was > 100 µM (inactive); in the assay on DU-145, > 100 µM (inactive); in the assay with OVCAR-4, > 100 µM (inactive); in the assay with HCT-116, > 86.5 µM (inactive); in the assay on SK-MEL-2 it was > 78.5 µM (inactive); in the assay on UACC-257, > 100 µM (inactive).
For `O=C1C(N2CCN(c3ccccn3)CC2)=C(Cl)C(=O)c2ncccc21`, the GI50 with Hs-578T is > 4.49 µM (inactive); in the assay with CAKI-1 it was 0.433 µM (active); in the assay with NCI/ADR-RES, 5.22 µM (inactive); with SNB-75, > 10 µM (inactive); in the assay on COLO 205, 1.96 µM (inactive); in the assay with 786-0, 1.78 µM (inactive). Further, the GI50 in the assay with HOP-92 is 1.58 µM (inactive); in the assay on RXF 393, 1.98 µM (inactive); with HT-29 it was 2.88 µM (inactive); in the assay on MDA-MB-435, > 3.74 µM (inactive); in the assay on U-251, > 10 µM (inactive); in the assay on NCI-H23, 1.85 µM (inactive). In addition, the GI50 with Malme-3M is 1.3 µM (inactive); in the assay with DU-145, > 6.76 µM (inactive); in the assay on OVCAR-4, 0.637 µM (active); with HCT-116, 1.71 µM (inactive); with SK-MEL-2, 2.31 µM (inactive); with UACC-257, 2.96 µM (inactive).
As to `CCOC(=O)/C(C#N)=C1\c2c([nH]c(=S)[nH]c2=O)Oc2ccc3ccccc3c21`, the GI50 is 76.6 µM (inactive) in the assay with Hs-578T; 75 µM (inactive) with CAKI-1; 59.3 µM (inactive) in the assay with NCI/ADR-RES; 23.3 µM (inactive) with SNB-75; 19.5 µM (inactive) in the assay with COLO 205; 53.8 µM (inactive) with 786-0. The GI50 in the assay on HOP-92 is 43.5 µM (inactive); in the assay with RXF 393 it was 36.2 µM (inactive); in the assay on HT-29, 12.4 µM (inactive); in the assay on MDA-MB-435, 43.2 µM (inactive); in the assay on U-251, 23.7 µM (inactive); with NCI-H23 it was 88.1 µM (inactive). In addition, the GI50 with Malme-3M is 68.7 µM (inactive); in the assay on DU-145, 78.9 µM (inactive); in the assay on OVCAR-4 it was > 100 µM (inactive); in the assay on HCT-116 it was 67.3 µM (inactive); in the assay on SK-MEL-2 it was 13 µM (inactive); with UACC-257 it was > 100 µM (inactive).
Consider `COC(=O)[C@@H](COC(=O)/C=C/c1ccc(OC(C)=O)c(OC(C)=O)c1)NC(=O)/C=C/c1ccc(OC(C)=O)c(OC(C)=O)c1`, for which the GI50 is 25.2 µM (inactive) in the assay with Hs-578T; 15.3 µM (inactive) in the assay with CAKI-1; 51.5 µM (inactive) with NCI/ADR-RES; 20.9 µM (inactive) in the assay with SNB-75; 15.7 µM (inactive) with COLO 205; 14.8 µM (inactive) in the assay on 786-0. Further, the GI50 is 32.7 µM (inactive) with HOP-92; 35.1 µM (inactive) with RXF 393; 22.4 µM (inactive) in the assay with HT-29; 29.5 µM (inactive) with MDA-MB-435; 33.7 µM (inactive) in the assay on U-251; 28.1 µM (inactive) with NCI-H23. The GI50 in the assay on Malme-3M was 6.52 µM (inactive); with DU-145 it was 22.8 µM (inactive); in the assay with OVCAR-4, 16.4 µM (inactive); in the assay on HCT-116 it was 16 µM (inactive); with SK-MEL-2 it was 21.7 µM (inactive); in the assay with UACC-257, 51.8 µM (inactive).
Regarding `O=C1O/C(=C\c2ccc(O)c(Br)c2)C(c2ccc(O)cc2)=C1Cl`, the GI50 was 37.1 µM (inactive) in the assay with Hs-578T; 37 µM (inactive) with CAKI-1; 29.6 µM (inactive) in the assay on NCI/ADR-RES; 53.3 µM (inactive) with SNB-75; 47.5 µM (inactive) in the assay on COLO 205; 42 µM (inactive) in the assay on 786-0. The GI50 in the assay with HOP-92 was 37.4 µM (inactive); in the assay with RXF 393, 29.9 µM (inactive); with HT-29 it was 51.9 µM (inactive); with MDA-MB-435, 33.3 µM (inactive); in the assay on U-251 it was 44.8 µM (inactive); with NCI-H23 it was 22.4 µM (inactive). The GI50 in the assay with Malme-3M was 38.5 µM (inactive); in the assay on DU-145 it was 61.1 µM (inactive); in the assay with OVCAR-4, 40 µM (inactive); in the assay on HCT-116, 34.1 µM (inactive); in the assay with SK-MEL-2 it was 40.1 µM (inactive); in the assay with UACC-257, 42.7 µM (inactive).
